Patent publication US9334279B2, “Hepatitis C virus inhibitors” (BRISTOL-MYERS SQUIBB COMPANY, priority 2012, dated 2016)
pEC50: −log10 of the molar value. Like-named read-outs stand apart in the source and are kept apart here.

Assays:
[1] = tested on: HCV GT1b(Con1) replicon; test: HCV replicon luciferase reporter assay, genotype 1b; type: cell-based, HCV genotype 1b; conditions: Hepatitis C virus, 72 h, HUH-7 cells, Renilla luciferase, 3 days incubation
In short: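 HUH-7 cells stably carrying a Con1 GT1b replicon with Renilla luciferase and Ser1179Ile adaptive mutation; 3.0×10^3 cells/well, DMEM 4% FCS, 0.5% DMSO, twenty-point 3-fold titration, 3 days 37 °C. Luminescence 2 h after 7.5 μM EnduRen; EC50 by four-parameter logistic fit. CC50 from multiplexed Cell Titer-Blue fluorescence (8 h).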

[2] = tested on: HCV GT1a(H77) replicon; test: HCV replicon luciferase reporter assay, genotype 1a; type: cell-based, HCV genotype 1a; conditions: Hepatitis C virus, 72 h, HUH-7 cells, Renilla luciferase, 3 days incubation
In short: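 Huh-7 cells stably carried a GT1a(H77) Renilla luciferase replicon with NS3 P1496L and NS5A S2204I adaptive mutations. Luminescence was read after 2 h with 7.5 μM EnduRen, and EC50 came from a four-parameter logistic fit; CC50 came from multiplexed Cell Titer-Blue (8 h).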

SMILES	pEC50 ([1]; read-out: LE_1b (EC50, range))	pEC50 ([2]; read-out: LE_1a (EC50, range))	pEC50 ([1]; read-out: LE_1b (EC50))	pEC50 ([2]; read-out: LE_1a (EC50))
Cc1cc(O[C@@H]2C[C@H]3C(=O)N[C@]4(C(=O)NS(=O)(=O)C5(C)CC5)C[C@H]4/C=C\CC[C@@H](C)C[C@@H](C)[C@H](NC(=O)OC(C)(C)C(F)(F)F)C(=O)N3C2)cc(-c2cncs2)n1 [Compound 1015, 1,1,1-trifluoro-2-methylpropan-2-yl ((2R,6S,7R,9R,13aS,14aR,16aS,Z)-7,9-dimethyl-2-((2-methyl-6-(thiazol-5-yl)pyridin-4-yl)oxy)-14a-(((1-methylcyclopropyl)sulfonyl)carbamoyl)-5,16-dioxo-1,2,3,5,6,7,8,9,10,11,13a,14,14a,15,16,16a-hexadecahydrocyclopropa[e]pyrrolo[1,2-a][1,4]diazacyclopentadecin-6-yl)carbamate]	7.46 to 8.30	7.46 to 8.30		
CC[C@@H]1C[C@H](C)CC/C=C\[C@@H]2C[C@@]2(C(=O)NS(=O)(=O)C2CC2)NC(=O)[C@@H]2C[C@@H](Oc3cc(-c4ccc(OC(C)C)cc4)nc(-c4nccs4)c3)CN2C(=O)[C@H]1NC(=O)O[C@@H]1C[C@@H]2C[C@@H]2C1 [Compound 1057, (1R,3r,5S)-bicyclo[3.1.0]hexan-3-yl ((2R,6S,7R,9R,13aS,14aR,16aS,Z)-14a-((cyclopropylsulfonyl)carbamoyl)-7-ethyl-2-((2-(4-isopropoxyphenyl)-6-(thiazol-2-yl)pyridin-4-yl)oxy)-9-methyl-5,16-dioxo-1,2,3,5,6,7,8,9,10,11,13a,14,14a,15,16,16a-hexadecahydrocyclopropa[e]pyrrolo[1,2-a][1,4]diazacyclopentadecin-6-yl)carbamate]	8.30 to 9.00	8.30 to 9.00		
CC(C)Oc1ccc(-c2cc(O[C@@H]3C[C@H]4C(=O)N[C@]5(C(=O)NS(=O)(=O)C6(C)CC6)C[C@H]5/C=C\CC[C@@H](C)C[C@@H](C)[C@H](NC(=O)OC(C)(C)C(F)(F)F)C(=O)N4C3)cc(-c3ccccn3)n2)cc1 [Compound 1021, 1,1,1-trifluoro-2-methylpropan-2-yl ((2R,6S,7R,9R,13aS,14aR,16aS,Z)-2-((6-(4-isopropoxyphenyl)-[2,2′-bipyridin]-4-yl)oxy)-7,9-dimethyl-14a-(((1-methylcyclopropyl)sulfonyl)carbamoyl)-5,16-dioxo-1,2,3,5,6,7,8,9,10,11,13a,14,14a,15,16,16a-hexadecahydrocyclopropa[e]pyrrolo[1,2-a][1,4]diazacyclopentadecin-6-yl)carbamate]	9.00 to 9.29	8.30 to 9.00		
CC[C@@H]1O[C@H](C)CC/C=C\[C@@H]2C[C@@]2(C(=O)NS(=O)(=O)C2(C)CC2)NC(=O)[C@@H]2C[C@@H](Oc3cc(-c4ccc(C(F)(F)F)cc4)nc(-c4nccs4)c3)CN2C(=O)[C@H]1NC(=O)OC1(C(F)(F)F)CCCOC1 (stereo partly drawn) [Compound 1040, 3-(trifluoromethyl)tetrahydro-2H-pyran-3-yl ((2R,6S,7S,9R,13aS,14aR,16aS,Z)-7-ethyl-9-methyl-14a-(((1-methylcyclopropyl)sulfonyl)carbamoyl)-5,16-dioxo-2-((2-(thiazol-2-yl)-6-(4-(trifluoromethyl)phenyl)pyridin-4-yl)oxy)-2,3,5,6,7,9,10,11,13a,14,14a,15,16,16a-tetradecahydro-1H-cyclopropa[i]pyrrolo[1,2-e][1,5,8]oxadiazacyclopentadecin-6-yl)carbamate]	9.30 to 10.00	9.00 to 9.29		
CC(C)Oc1ccc(-c2cc(O[C@@H]3C[C@H]4C(=O)N[C@]5(C(=O)NS(=O)(=O)C6(C)CC6)C[C@H]5/C=C\CC[C@H](C)C[C@@H](C)[C@H](NC(=O)OC5(C(F)(F)F)CCCOC5)C(=O)N4C3)cc(-c3cncs3)n2)cc1 (stereo partly drawn) [Compound 1018, 3-(trifluoromethyl)tetrahydro-2H-pyran-3-yl ((2R,6S,7R,9S,13aS,14aR,16aS,Z)-2-((2-(4-isopropoxyphenyl)-6-(thiazol-5-yl)pyridin-4-yl)oxy)-7,9-dimethyl-14a-(((1-methylcyclopropyl)sulfonyl)carbamoyl)-5,16-dioxo-1,2,3,5,6,7,8,9,10,11,13a,14,14a,15,16,16a-hexadecahydrocyclopropa[e]pyrrolo[1,2-a][1,4]diazacyclopentadecin-6-yl)carbamate]	8.30 to 9.00	7.46 to 8.30		
CC(C)Oc1ccc(-c2cc(O[C@@H]3C[C@H]4C(=O)N[C@]5(C(=O)NS(=O)(=O)C6(C)CC6)C[C@H]5/C=C\CC[C@@H](C)C[C@@H](C)[C@H](NC(=O)OC5(C(F)(F)F)CCCOC5)C(=O)N4C3)cc(-c3cscn3)n2)cc1 (stereo partly drawn) [Compound 1052, 3-(trifluoromethyl)tetrahydro-2H-pyran-3-yl ((2R,6S,7R,9R,13aS,14aR,16aS,Z)-2-((2-(4-isopropoxyphenyl)-6-(thiazol-4-yl)pyridin-4-yl)oxy)-7,9-dimethyl-14a-(((1-methylcyclopropyl)sulfonyl)carbamoyl)-5,16-dioxo-1,2,3,5,6,7,8,9,10,11,13a,14,14a,15,16,16a-hexadecahydrocyclopropa[e]pyrrolo[1,2-a][1,4]diazacyclopentadecin-6-yl)carbamate]	9.00 to 9.29	9.30 to 10.00		
CC(C)Oc1ccc(-c2cc(O[C@@H]3C[C@H]4C(=O)N[C@]5(C(=O)NS(=O)(=O)C6(C)CC6)C[C@H]5/C=C\CC[C@H](C)C[C@@H](C)[C@H](NC(=O)OC(C)(C)C(F)(F)F)C(=O)N4C3)cc(-c3cnccn3)n2)cc1 [Compound 1002, 1,1,1-trifluoro-2-methylpropan-2-yl ((2R,6S,7R,9S,13aS,14aR,16aS,Z)-2-((2-(4-isopropoxyphenyl)-6-(pyrazin-2-yl)pyridin-4-yl)oxy)-7,9-dimethyl-14a-(((1-methylcyclopropyl)sulfonyl)carbamoyl)-5,16-dioxo-1,2,3,5,6,7,8,9,10,11,13a,14,14a,15,16,16a-hexadecahydrocyclopropa[e]pyrrolo[1,2-a][1,4]diazacyclopentadecin-6-yl)carbamate]	7.46 to 8.30	6.44 to 7.46	7.93	7.23
CC(C)Oc1ccc(-c2cc(O[C@@H]3C[C@H]4C(=O)N[C@]5(C(=O)NS(=O)(=O)C6(C)CC6)C[C@H]5/C=C\CC[C@H](C)C[C@@H](C)[C@H](NC(=O)OC(C)(C)C(F)(F)F)C(=O)N4C3)cc(-c3ncccn3)n2)cc1 [Compound 1020, 1,1,1-trifluoro-2-methylpropan-2-yl ((2R,6S,7R,9S,13aS,14aR,16aS,Z)-2-((2-(4-isopropoxyphenyl)-6-(pyrimidin-2-yl)pyridin-4-yl)oxy)-7,9-dimethyl-14a-(((1-methylcyclopropyl)sulfonyl)carbamoyl)-5,16-dioxo-1,2,3,5,6,7,8,9,10,11,13a,14,14a,15,16,16a-hexadecahydrocyclopropa[e]pyrrolo[1,2-a][1,4]diazacyclopentadecin-6-yl)carbamate]	8.30 to 9.00	7.46 to 8.30		
CC(C)Oc1ccc(-c2cc(O[C@@H]3C[C@H]4C(=O)N[C@]5(C(=O)NS(=O)(=O)C6(C)CC6)C[C@H]5/C=C\CC[C@H](C)C[C@@H](C)[C@H](NC(=O)OC(C)(C)C(F)(F)F)C(=O)N4C3)cc(-c3ccncc3)n2)cc1 [Compound 1010, 1,1,1-trifluoro-2-methylpropan-2-yl ((2R,6S,7R,9S,13aS,14aR,16aS,Z)-2-((6-(4-isopropoxyphenyl)-[2,4′-bipyridin]-4-yl)oxy)-7,9-dimethyl-14a-(((1-methylcyclopropyl)sulfonyl)carbamoyl)-5,16-dioxo-1,2,3,5,6,7,8,9,10,11,13a,14,14a,15,16,16a-hexadecahydrocyclopropa[e]pyrrolo[1,2-a][1,4]diazacyclopentadecin-6-yl)carbamate]	7.46 to 8.30	7.46 to 8.30		
Cc1ccc(-c2cc(O[C@@H]3C[C@H]4C(=O)N[C@]5(C(=O)NS(=O)(=O)C6(C)CC6)C[C@H]5/C=C\CC[C@@H](C)C[C@@H](C)[C@H](NC(=O)OC(C)(C)C(F)(F)F)C(=O)N4C3)cc(-c3nccs3)n2)cc1 [Compound 1059, 1,1,1-trifluoro-2-methylpropan-2-yl ((2R,6S,7R,9R,13aS,14aR,16aS,Z)-7,9-dimethyl-14a-(((1-methylcyclopropyl)sulfonyl)carbamoyl)-5,16-dioxo-2-((2-(thiazol-2-yl)-6-(p-tolyl)pyridin-4-yl)oxy)-1,2,3,5,6,7,8,9,10,11,13a,14,14a,15,16,16a-hexadecahydrocyclopropa[e]pyrrolo[1,2-a][1,4]diazacyclopentadecin-6-yl)carbamate]	9.00 to 9.29	9.00 to 9.29		
Cc1cnc(-c2cc(O[C@@H]3C[C@H]4C(=O)N[C@]5(C(=O)NS(=O)(=O)C6(C)CC6)C[C@H]5/C=C\CC[C@@H](C)C[C@@H](C)[C@H](NC(=O)OC5(C(F)(F)F)CCCOC5)C(=O)N4C3)ccn2)s1 (stereo partly drawn) [Compound 1044, 3-(trifluoromethyl)tetrahydro-2H-pyran-3-yl ((2R,6S,7R,9R,13aS,14aR,16aS,Z)-7,9-dimethyl-14a-(((1-methylcyclopropyl)sulfonyl)carbamoyl)-2-((2-(5-methylthiazol-2-yl)pyridin-4-yl)oxy)-5,16-dioxo-1,2,3,5,6,7,8,9,10,11,13a,14,14a,15,16,16a-hexadecahydrocyclopropa[e]pyrrolo[1,2-a][1,4]diazacyclopentadecin-6-yl)carbamate]	9.00 to 9.29	8.30 to 9.00		
